Test results as given in patent US20200131196A1 (Mount Tam Therapeutics, Inc., priority 2017, published 2020).
Like-named read-outs stand apart in the source and are kept apart here.

Tests used:
[1] = test system: SNU-5; assay: OncoPanel cell proliferation assay, SNU-5; type: cell-based, human
Description: (§1) Cells were seeded into 384-well plates and incubated in a humidified atmosphere of 5% CO2 at 37° C. Compounds were added the day following cell seeding. At the same time, a time zero untreated cell plate was generated. After a 3-day incubation period, cells were fixed and stained to allow fluorescence imaging of nuclei. Compounds (1 mM stock solutions) were serially diluted in half-log steps from the highest test concentration ([…]), and assayed over 10 concentrations with a maximum assay concentration of 0.1% DMSO. Automated fluorescence microscopy was carried out using a Molecular Devices ImageXpress Micro XL high-content imager, and images were collected with a 4× objective. 16-bit TIFF images were acquired and analyzed with MetaXpress 5.1.0.41 software.
(§2) Cell proliferation was measured by the fluorescence intensity of an incorporated nuclear dye. The output is referred to as the relative cell count, where the measured nuclear intensity is transformed to percent of control (POC) using the following formula: […]
(§3) Cellular response parameters were calculated using nonlinear regression to a sigmoidal single-site dose response model:
GI50 is the concentration needed to reduce the observed growth by half (midway between the curve maximum and the time zero value). […] In rare instances, values <0 or >10 may be observed. […] Curve-fitting, calculations, and report generation was performed using a custom data reduction engine and MathIQ based software (AIM).

[2] = test system: U-138MG; assay: OncoPanel cell proliferation assay, U-138MG; type: cell-based, human
Description: as §1, with “Cells were grown in RPMI 1640, 10% FBS, 2 mM L-alanyl-L-glutamine, 1 mM Na pyruvate, or a special medium. Cells” for “Cells”
as §2, §3
(§4) EC50 is the test compound concentration at the curve inflection point or half the effective response (parameter C of the fitted curve solution). GI50 is the concentration needed to reduce the observed growth by half (midway between the curve maximum and the time zero value). “Cell Count Activity Area” is an estimate of the integrated area above the curve (Barretina, et al. The Cancer Cell Line Encyclopedia enables predictive modelling of anticancer drug sensitivity. Nature 483: 603-607). […] In rare instances, values <0 or >10 may be observed. […] Curve-fitting, calculations, and report generation was performed using a custom data reduction engine and MathIQ based software (AIM).

[3] = test system: U-87 MG; assay: OncoPanel cell proliferation assay, U-87 MG; type: cell-based, human
Description: as §1, with “Cells were grown in RPMI 1640, 10% FBS, 2 mM L-alanyl-L-glutamine, 1 mM Na pyruvate, or a special medium. Cells” for “Cells”
as §2, §3, §4

[4] = test system: PC-3; assay: OncoPanel cell proliferation assay, PC-3
Description: (§5) Cells were seeded into 384-well plates and incubated in a humidified atmosphere of 5% CO2 at 37° C. Compounds were added the day following cell seeding. At the same time, a time zero untreated cell plate was generated. After a 3-day incubation period, cells were fixed and stained to allow fluorescence imaging of nuclei. Compounds (1 mM stock solutions) were serially diluted in half-log steps from the highest test concentration (1 micromol), and assayed over 10 concentrations with a maximum assay concentration of 0.1% DMSO. Automated fluorescence microscopy was carried out using a Molecular Devices ImageXpress Micro XL high-content imager, and images were collected with a 4× objective. 16-bit TIFF images were acquired and analyzed with MetaXpress 5.1.0.41 software.

[5] = test system: CAMA-1; assay: OncoPanel cell proliferation assay, CAMA-1
Description: as §5

[6] = test system: SHP-77; assay: OncoPanel cell proliferation assay, SHP-77
Description: as §5

[7] = Homo sapiens, read-out: Cell Count EC50
[8] = Homo sapiens, read-out: Cell Count GI50
[9] = Homo sapiens, read-out: Cell Count IC50

SMILES: CO[C@H]1C[C@@H]2CC[C@@H](C)[C@@](O)(O2)C(=O)C(=O)N2CCCC[C@H]2C(=O)O[C@H]([C@H](C)C[C@H]2C[C@H]3C[C@@H]2C[C@@H]3O)CC(=O)[C@H](C)/C=C(\C)[C@@H](O)[C@@H](OC)C(=O)[C@H](C)C[C@H](C)/C=C/C=C/C=C/1C [Formula II, C37-[(1R,2S,4R,5S)-5-hyhroxybicyclo[2.2.1]heptane] rapamycin]
- Cell Count Activity Area [1]: 1.85
- Relative cell count (%) Mean ([1]; 1.00E+00 microM): 67.1%
- Relative cell count (%) Mean ([1]; 1.00E-01 microM): 71.9%
- Relative cell count (%) Mean ([1]; 1.00E-02 microM): 82.9%
- Relative cell count (%) Mean ([1]; 1.00E-03 microM): 95.6%
- Relative cell count (%) Mean ([1]; 1.01E-04 microM): 101.2%
- Relative cell count (%) Mean ([1]; 3.16E-01 microM): 70.4%
- Relative cell count (%) Mean ([1]; 3.17E-02 microM): 76.3%
- Relative cell count (%) Mean ([1]; 3.17E-03 microM): 84.9%
- Relative cell count (%) Mean ([1]; 3.18E-04 microM): 95.6%
- Relative cell count (%) Mean ([1]; 3.18E-05 microM): 101.0%
- EC50 [1, 7]: 5.57 nM
- GI50 [1, 8]: 168 nM
- IC50 [1, 9]: > 1000 nM
- EC50 ([2]; Homo sapiens, U138-MG, U-138 MG, CNS, Glioblastoma, summary Table 5, read-out: EC50): 1.4 nM
- EC50 ([2]; Homo sapiens, U138-MG, U-138MG, read-out: Cell Count EC50): 1.44 nM
- GI50 ([2]; Homo sapiens, U138-MG, U-138MG, read-out: Cell Count GI50): 23 nM
- IC50 ([2]; Homo sapiens, U138-MG, U-138MG, read-out: Cell Count IC50): > 1000 nM
- Cell Count Activity Area ([2]; U-138MG): 2.59
- Relative cell count (%) Mean ([2]; U-138MG, 1.00E+00 microM): 60.4%
- Relative cell count (%) Mean ([2]; U-138MG, 1.00E-01 microM): 67.9%
- Relative cell count (%) Mean ([2]; U-138MG, 1.00E-02 microM): 76.4%
- Relative cell count (%) Mean ([2]; U-138MG, 1.00E-03 microM): 74.8%
- Relative cell count (%) Mean ([2]; U-138MG, 1.01E-04 microM): 87.7%
- Relative cell count (%) Mean ([2]; U-138MG, 3.16E-01 microM): 65.0%
- Relative cell count (%) Mean ([2]; U-138MG, 3.17E-02 microM): 69.1%
- Relative cell count (%) Mean ([2]; U-138MG, 3.17E-03 microM): 73.8%
- Relative cell count (%) Mean ([2]; U-138MG, 3.18E-04 microM): 78.5%
- Relative cell count (%) Mean ([2]; U-138MG, 3.18E-05 microM): 87.8%
- Cell Count Activity Area [3]: 3.76
- Relative cell count (%) Mean ([3]; 1.00E+00 microM): 48.9%
- Relative cell count (%) Mean ([3]; 1.00E-01 microM): 52.1%
- Relative cell count (%) Mean ([3]; 1.00E-02 microM): 70.4%
- Relative cell count (%) Mean ([3]; 1.00E-03 microM): 78.8%
- Relative cell count (%) Mean ([3]; 1.01E-04 microM): 101.1%
- Relative cell count (%) Mean ([3]; 3.16E-01 microM): 50.7%
- Relative cell count (%) Mean ([3]; 3.17E-02 microM): 60.4%
- Relative cell count (%) Mean ([3]; 3.17E-03 microM): 71.4%
- Relative cell count (%) Mean ([3]; 3.18E-04 microM): 85.3%
- Relative cell count (%) Mean ([3]; 3.18E-05 microM): 108.2%
- EC50 [3, 7]: 0.996 nM
- GI50 [3, 8]: 2.17 nM
- IC50 [3, 9]: 34.1 nM
- EC50 ([4]; Homo sapiens, PC-3, read-out: Cell Count EC50): 0.637 nM
- GI50 ([4]; Homo sapiens, PC-3, read-out: Cell Count GI50): 3.99 nM
- IC50 ([4]; Homo sapiens, PC-3, read-out: Cell Count IC50): 18.4 nM
- Cell Count Activity Area ([4]; PC-3): 3.80
- Relative cell count (%) Mean ([4]; PC-3, 1.00E+00 microM): 42.2%
- Relative cell count (%) Mean ([4]; PC-3, 1.00E-01 microM): 50.3%
- Relative cell count (%) Mean ([4]; PC-3, 1.00E-02 microM): 59.2%
- Relative cell count (%) Mean ([4]; PC-3, 1.00E-03 microM): 70.9%
- Relative cell count (%) Mean ([4]; PC-3, 1.01E-04 microM): 98.3%
- Relative cell count (%) Mean ([4]; PC-3, 3.16E-01 microM): 47.6%
- Relative cell count (%) Mean ([4]; PC-3, 3.17E-02 microM): 50.8%
- Relative cell count (%) Mean ([4]; PC-3, 3.17E-03 microM): 61.5%
- Relative cell count (%) Mean ([4]; PC-3, 3.18E-04 microM): 73.9%
- Relative cell count (%) Mean ([4]; PC-3, 3.18E-05 microM): 96.9%
- Cell Count Activity Area ([5]; CAMA-1): 4.22
- Relative cell count (%) Mean ([5]; CAMA-1, 1.00E+00 microM): 42.0%
- Relative cell count (%) Mean ([5]; CAMA-1, 1.00E-01 microM): 45.4%
- Relative cell count (%) Mean ([5]; CAMA-1, 1.00E-02 microM): 54.6%
- Relative cell count (%) Mean ([5]; CAMA-1, 1.00E-03 microM): 64.5%
- Relative cell count (%) Mean ([5]; CAMA-1, 1.01E-04 microM): 98.0%
- Relative cell count (%) Mean ([5]; CAMA-1, 3.16E-01 microM): 43.0%
- Relative cell count (%) Mean ([5]; CAMA-1, 3.17E-02 microM): 45.1%
- Relative cell count (%) Mean ([5]; CAMA-1, 3.17E-03 microM): 55.9%
- Relative cell count (%) Mean ([5]; CAMA-1, 3.18E-04 microM): 79.7%
- Relative cell count (%) Mean ([5]; CAMA-1, 3.18E-05 microM): 96.5%
- EC50 ([5]; Homo sapiens, CAMA-1, read-out: Cell Count EC50): 0.491 nM
- GI50 ([5]; Homo sapiens, CAMA-1, read-out: Cell Count GI50): 0.647 nM
- IC50 ([5]; Homo sapiens, CAMA-1, read-out: Cell Count IC50): 4.34 nM
- EC50 ([6]; Homo sapiens, SHP77, read-out: Cell Count EC50): > 1000 nM
- GI50 ([6]; Homo sapiens, SHP77, read-out: Cell Count GI50): > 1000 nM
- IC50 ([6]; Homo sapiens, SHP77, read-out: Cell Count IC50): > 1000 nM
- Cell Count Activity Area ([6]; SHP-77): 0.76
- Relative cell count (%) Mean ([6]; SHP-77, 1.00E+00 microM): 67.9%
- Relative cell count (%) Mean ([6]; SHP-77, 1.00E-01 microM): 79.9%
- Relative cell count (%) Mean ([6]; SHP-77, 1.00E-02 microM): 96.8%
- Relative cell count (%) Mean ([6]; SHP-77, 1.00E-03 microM): 96.1%
- Relative cell count (%) Mean ([6]; SHP-77, 1.01E-04 microM): 95.8%
- Relative cell count (%) Mean ([6]; SHP-77, 3.16E-01 microM): 75.2%
- Relative cell count (%) Mean ([6]; SHP-77, 3.17E-02 microM): 88.0%
- Relative cell count (%) Mean ([6]; SHP-77, 3.17E-03 microM): 92.3%
- Relative cell count (%) Mean ([6]; SHP-77, 3.18E-04 microM): 90.6%
- Relative cell count (%) Mean ([6]; SHP-77, 3.18E-05 microM): 98.5%
